Experimental data from patent US20090221653A1, “7-(2-amino-1-hydroxy-ethyl)-4-hydroxybenzothiazol-2(3H)-one-derivatives as beta2 adrenoreceptor agonists” (AstraZeneca AB, priority 2005, published 2009).
Counter-ions that a name gives are not always drawn.

Columns and labels:
Adrenergic β2 = target: T1, Adrenergic β2 (Homo sapiens, UniProt P07550); test: Alternative Adrenergic β2 Mediated cAMP Production in H292 cells (AlphaScreen cAMP detection); type: cell-based; settings: for EC50: cAMP, test compounds incubated 60 minutes, 300 μM rolipram, read-out: β2 pEC50 (converted); for β2 Int Act: fraction relative to the maximum activity determined for formoterol, 60 minutes incubation
T1 construct: endogenous in cells; host or cells: H292 cells

[1] = target: T2, recombinant human Dopamine Subtype D2s receptors (Homo sapiens, UniProt P14416); test: Dopamine D2 selectivity assay, inhibition of [3H]-spiperone binding; settings: membranes, [3H]-spiperone 0.16 nM; read-out: D2 bind pIC50 (converted)
T2 construct: purchased Perkin Elmer
T2 sequence (P14416 1-414 isoform P14416-2): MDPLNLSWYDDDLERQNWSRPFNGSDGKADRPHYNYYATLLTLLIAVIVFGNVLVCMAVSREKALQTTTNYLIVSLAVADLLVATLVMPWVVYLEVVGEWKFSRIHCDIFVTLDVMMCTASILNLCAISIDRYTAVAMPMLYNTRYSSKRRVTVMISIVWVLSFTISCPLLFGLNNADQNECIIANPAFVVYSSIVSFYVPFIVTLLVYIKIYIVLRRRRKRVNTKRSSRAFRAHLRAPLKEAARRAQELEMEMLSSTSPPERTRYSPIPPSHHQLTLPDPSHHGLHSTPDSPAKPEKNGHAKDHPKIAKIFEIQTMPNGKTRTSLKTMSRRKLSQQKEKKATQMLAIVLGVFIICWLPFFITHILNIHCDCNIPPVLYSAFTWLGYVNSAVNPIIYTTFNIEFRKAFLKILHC

T1 sequence (P07550 whole entry): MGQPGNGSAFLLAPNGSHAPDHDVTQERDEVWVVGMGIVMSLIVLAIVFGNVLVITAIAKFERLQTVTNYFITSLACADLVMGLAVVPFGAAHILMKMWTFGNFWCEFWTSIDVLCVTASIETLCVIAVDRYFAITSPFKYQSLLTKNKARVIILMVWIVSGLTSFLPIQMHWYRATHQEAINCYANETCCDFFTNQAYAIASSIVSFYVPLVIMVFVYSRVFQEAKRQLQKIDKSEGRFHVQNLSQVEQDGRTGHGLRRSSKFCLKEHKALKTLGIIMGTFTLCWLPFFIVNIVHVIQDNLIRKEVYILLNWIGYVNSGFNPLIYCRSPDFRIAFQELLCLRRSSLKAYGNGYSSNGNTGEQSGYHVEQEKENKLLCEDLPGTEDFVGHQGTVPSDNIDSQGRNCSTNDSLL

| EC50 (Adrenergic β2) [nM] | β2 Int Act (Adrenergic β2) | IC50 [1] [nM] | SMILES |
| --- | --- | --- | --- |
| 0.158 | 1 |  | O=c1[nH]c2c(O)ccc([C@@H](O)CNCCCS(=O)(=O)CCOCCc3cccc4ccccc34)c2s1 [Example 2, 4-Hydroxy-7-((1R)-1-hydroxy-2-{[3-({2-[2-(1-naphthyl)ethoxy]ethyl}sulfonyl)propyl]-amino}ethyl)-1,3-benzothiazol-2(3H)-one trifluoroacetate] |
| 0.1 | 0.9 | 794 | Cl.O=c1[nH]c2c(O)ccc([C@@H](O)CNCCSCCOCCc3cccc4ccccc34)c2s1 [Example 4, 4-Hydroxy-7-((1R)-1-hydroxy-2-{[2-({2-[2-(1-naphthyl)ethoxy]ethyl}thio)ethyl]-amino}ethyl)-1,3-benzothiazol-2(3H)-one hydrochloride] |
